Assays:
Coagulation factor X = Coagulation factor X (Homo sapiens, UniProt P00742); test: Inhibition of human factor 10a by para-nitroanilide release assay
[1] = Plasma concentration in cynomolgus monkey at 1 mg/kg, po after 1 hr; type: ADME, organism-based, Macaca fascicularis; set-up: dose 1 mg/kg, route oral
[2] = Plasma concentration in cynomolgus monkey at 1 mg/kg, po after 2 hrs; type: ADME, organism-based, Macaca fascicularis; set-up: dose 1 mg/kg, route oral
[3] = Plasma concentration in cynomolgus monkey at 1 mg/kg, po after 4 hrs; type: ADME, organism-based, Macaca fascicularis; set-up: dose 1 mg/kg, route oral
[4] = Plasma concentration in cynomolgus monkey at 1 mg/kg, po after 10 hrs; type: ADME, organism-based, Macaca fascicularis; set-up: dose 1 mg/kg, route oral
[5] = AUC (0 to 10 hrs) in cynomolgus monkey at 1 mg/kg, po; type: ADME, organism-based, Macaca fascicularis; set-up: time < 10 hr, dose 1 mg/kg, route oral; conditions: plasma
[6] = Mean residence time in cynomolgus monkey at 1 mg/kg, po; type: ADME, organism-based, Macaca fascicularis; set-up: dose 1 mg/kg, route oral; conditions: in vivo
[7] = Oral bioavailability in cynomolgus monkey at 1 mg/kg, po; type: ADME, organism-based, Macaca fascicularis; conditions: in vivo
Prothrombin = Prothrombin (Homo sapiens, UniProt P00734); test: Inhibition of human thrombin by para-nitroanilide release assay
Plasminogen = Plasminogen (Homo sapiens, UniProt P00747); test: Inhibition of human plasmin by para-nitroanilide release assay
Sequence of Plasminogen (P00747 97-580 limits assumed): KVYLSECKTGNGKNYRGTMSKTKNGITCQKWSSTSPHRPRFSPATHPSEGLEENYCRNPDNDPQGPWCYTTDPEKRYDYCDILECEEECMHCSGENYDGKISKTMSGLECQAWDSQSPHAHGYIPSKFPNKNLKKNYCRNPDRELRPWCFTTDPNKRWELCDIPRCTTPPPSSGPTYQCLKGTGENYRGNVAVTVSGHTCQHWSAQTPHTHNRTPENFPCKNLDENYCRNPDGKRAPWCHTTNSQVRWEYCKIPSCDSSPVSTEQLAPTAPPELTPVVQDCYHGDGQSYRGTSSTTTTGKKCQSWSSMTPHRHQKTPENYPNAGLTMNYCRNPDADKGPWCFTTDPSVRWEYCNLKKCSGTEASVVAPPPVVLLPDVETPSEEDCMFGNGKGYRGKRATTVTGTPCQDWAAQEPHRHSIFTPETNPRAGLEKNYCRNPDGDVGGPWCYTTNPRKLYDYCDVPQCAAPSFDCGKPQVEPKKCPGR
Sequence of Plasminogen (P00747 581-810 limits assumed): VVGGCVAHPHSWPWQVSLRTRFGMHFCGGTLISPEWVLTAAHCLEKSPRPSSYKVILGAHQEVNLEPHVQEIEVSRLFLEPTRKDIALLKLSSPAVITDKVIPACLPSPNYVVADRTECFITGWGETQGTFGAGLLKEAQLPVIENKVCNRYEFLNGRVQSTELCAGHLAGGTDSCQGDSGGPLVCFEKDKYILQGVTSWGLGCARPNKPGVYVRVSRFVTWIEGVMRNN

Trypsin = Trypsin (Homo sapiens, UniProt P07477+P07478+P35030); test: Inhibition of human trypsin by para-nitroanilide release assay; type: protein assay
[8] = biological target: Tissue-type plasminogen activator (Homo sapiens, UniProt P00750); test: Inhibition of human tissue plasminogen activator by para-nitroanilide release assay
Sequence of Tissue-type plasminogen activator (P00750 whole entry): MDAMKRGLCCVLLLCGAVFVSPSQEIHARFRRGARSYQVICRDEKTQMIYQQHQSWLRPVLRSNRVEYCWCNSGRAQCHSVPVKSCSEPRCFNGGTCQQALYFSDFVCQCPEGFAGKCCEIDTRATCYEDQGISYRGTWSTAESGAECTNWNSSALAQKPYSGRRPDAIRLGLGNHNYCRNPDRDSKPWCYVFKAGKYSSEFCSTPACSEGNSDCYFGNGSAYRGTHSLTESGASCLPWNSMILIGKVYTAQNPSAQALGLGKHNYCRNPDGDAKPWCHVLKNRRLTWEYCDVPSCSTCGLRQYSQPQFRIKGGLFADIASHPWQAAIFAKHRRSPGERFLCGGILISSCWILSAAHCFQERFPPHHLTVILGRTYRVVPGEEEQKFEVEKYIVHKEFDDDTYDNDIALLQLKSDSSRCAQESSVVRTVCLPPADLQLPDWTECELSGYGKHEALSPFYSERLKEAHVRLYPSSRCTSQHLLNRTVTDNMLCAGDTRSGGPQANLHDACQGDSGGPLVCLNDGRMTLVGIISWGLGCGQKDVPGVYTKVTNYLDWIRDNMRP

[9] = Volume of distribution at steady state in cynomolgus monkey at 0.1 mg/kg, iv; type: ADME, organism-based, Macaca fascicularis; set-up: dose 0.1 mg/kg, route intravenous; conditions: in vivo, read-out: Vdss
[10] = Total clearance in cynomolgus monkey at 0.1 mg/kg, iv; type: ADME, organism-based, Macaca fascicularis; set-up: dose 0.1 mg/kg, route intravenous; conditions: in vivo
[11] = Cmax in cynomolgus monkey at 1 mg/kg, po; type: ADME, organism-based, Macaca fascicularis; set-up: dose 1 mg/kg, route oral; conditions: in vivo
[12] = AUC in cynomolgus monkey at 1 mg/kg, po; type: ADME, organism-based, Macaca fascicularis; set-up: dose 1 mg/kg, route oral; conditions: plasma

Sequence of Coagulation factor X (P00742 41-179 limits assumed): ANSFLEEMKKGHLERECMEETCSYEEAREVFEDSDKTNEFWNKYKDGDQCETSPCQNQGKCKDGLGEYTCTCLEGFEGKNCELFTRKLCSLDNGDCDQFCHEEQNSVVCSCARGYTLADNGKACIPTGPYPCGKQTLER
Sequence of Coagulation factor X (P00742 235-488 limits assumed): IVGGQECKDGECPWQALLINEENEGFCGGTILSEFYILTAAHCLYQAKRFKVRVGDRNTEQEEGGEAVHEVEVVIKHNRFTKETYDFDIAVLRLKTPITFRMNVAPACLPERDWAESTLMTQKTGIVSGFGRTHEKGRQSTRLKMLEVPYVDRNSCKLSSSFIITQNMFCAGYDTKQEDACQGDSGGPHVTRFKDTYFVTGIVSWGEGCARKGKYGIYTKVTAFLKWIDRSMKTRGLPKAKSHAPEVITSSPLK

Structure (SMILES)	IC50 (Coagulation factor X)	concentration at 1 h [1]	concentration at 2 h [2]	concentration at 4 h [3]	concentration at 10 h [4]	AUC(0-t) at 10 h [5]	other results
O=S(O)c1ccc2cc(Cl)ccc2c1	> 5 µM	–	–	–	–	–	–
Cc1ncc2n1C(=O)N(C1CCN(C(=O)[C@@H](O)CS(=O)(=O)c3ccc4cc(Cl)ccc4c3)CC1)C2	–	0.8 ng/mL	4.4 ng/mL	91 ng/mL	3.6 ng/mL	54.6 ng·h/mL	–
Cc1ncc2n1C(=O)N(C1CCN(C(=O)[C@H](O)CS(=O)(=O)c3ccc4cc(Cl)ccc4c3)CC1)C2	–	2.7 ng/mL	6.8 ng/mL	6.5 ng/mL	1.8 ng/mL	44.2 ng·h/mL	MRT [6]: 7.05 h; bioavailability [7]: 25.4%; Ki (Prothrombin): 1.9 µM; Ki (Plasminogen): > 60 µM; Ki (Trypsin): > 60 µM; Ki [8]: > 60 µM; Vd [9]: 0.719 L/kg; clearance [10]: 14.2 mL/min/kg; Cmax [11]: 30.5 ng/mL; AUC [12]: 307 ng·h/mL
O=C(CCS(=O)(=O)c1ccc2cc(Cl)ccc2c1)N1CCC(N2Cc3cnc(CO)n3C2=O)CC1	–	16.6 ng/mL	25 ng/mL	13.3 ng/mL	–	107 ng·h/mL	MRT [6]: 7.56 h; bioavailability [7]: 32.3%; Ki (Prothrombin): 7.8 µM; Ki (Plasminogen): > 60 µM; Ki (Trypsin): > 60 µM; Ki [8]: > 60 µM; Vd [9]: 0.588 L/kg; clearance [10]: 11.9 mL/min/kg; Cmax [11]: 60.1 ng/mL; AUC [12]: 470 ng·h/mL
Cc1ncc2n1C(=O)N(C1CCN(C(=O)C(=O)CS(=O)(=O)c3ccc4cc(Cl)ccc4c3)CC1)C2	0.93 µM	–	–	–	–	–	–

The next lines start with results.

IC50 (Coagulation factor X)	concentration at 1 h [1]	concentration at 2 h [2]	concentration at 4 h [3]	concentration at 10 h [4]	AUC(0-t) at 10 h [5]	Structure (SMILES)	other results
–	92.8 ng/mL	132 ng/mL	65.9 ng/mL	9.9 ng/mL	583 ng·h/mL	Cc1ncc2n1C(=O)N(C1CCN(C(=O)CCS(=O)(=O)c3ccc4cc(Cl)ccc4c3)CC1)C2	–
> 5 µM	–	–	–	–	–	NC1CCN(C(=O)CCS(=O)(=O)c2ccc3cc(Cl)ccc3c2)CC1	–
> 5 µM	–	–	–	–	–	O=C(O)CCS(=O)(=O)c1ccc2cc(Cl)ccc2c1	–

Reference: ChEMBL document CHEMBL1152687, “Synthesis and biological evaluation of the metabolites of 2-(1-{3-[(6-chloronaphthalen-2-yl)sulfonyl]propanoyl}piperidin-4-yl)-5-methyl-1,2-dihydro-3H-imidazo[1,5-c]imidazol-3-one” (Bioorg Med Chem, 2009)
